# What was measured:
# Experiment in all cases: relative viability (nuclei count vs DMSO), 5 days (fraction); higher = more cells survive
# RU-SKI 43 + Tozasertib = compound: CC[C@@H](C)CNCC(=O)N1CCC2=C([C@@H]1COC3=CC=CC(=C3)C)C=CS2 [RU-SKI 43] + Cc1cc(Nc2cc(N3CCN(C)CC3)nc(Sc3ccc(NC(=O)C4CC4)cc3)n2)n[nH]1 [Tozasertib] (partner 0.1 µM)
# Method in brief: (§1)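 After 5 days of treatment, lung cancer cells in 1536-well plates were fixed and stained in a single step (final 0.05% Triton X-100, 1% formaldehyde, 1 ug/ml Hoechst) and their nuclei counted on 4× images. Treatment had been applied by pin tool the day after seeding as one drug alone or as a fixed anchor-drug dose with five library-drug doses (not always all listed) in √10 steps. Relative viability is the nuclei count of treated wells divided by that of vehicle wells, and values are medians of duplicate plates.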
# RU-SKI 43 + Olaparib = compound: CC[C@@H](C)CNCC(=O)N1CCC2=C([C@@H]1COC3=CC=CC(=C3)C)C=CS2 [RU-SKI 43] + O=C(c1cc(Cc2n[nH]c(=O)c3ccccc23)ccc1F)N1CCN(C(=O)C2CC2)CC1 [Olaparib] (partner 8 µM)
# Method in brief: as §1
# Irinotecan + Palbociclib = compound: CCc1c2c(nc3ccc(OC(=O)N4CCC(N5CCCCC5)CC4)cc13)-c1cc3c(c(=O)n1C2)COC(=O)[C@]3(O)CC [Irinotecan] + CC(=O)c1c(C)c2cnc(Nc3ccc(N4CCNCC4)cn3)nc2n(C2CCCC2)c1=O [Palbociclib] (partner 0.5 µM)
# Method in brief: as §1
# MK-8033 + Navitoclax = compound: Cn1cc(-c2cnc3ccc4ccc(CS(=O)(=O)NCc5ccccn5)cc4c(=O)c3c2)cn1 [MK-8033] + CC1(C)CCC(c2ccc(Cl)cc2)=C(CN2CCN(c3ccc(C(=O)NS(=O)(=O)c4ccc(N[C@H](CCN5CCOCC5)CSc5ccccc5)c(S(=O)(=O)C(F)(F)F)c4)cc3)CC2)C1 [Navitoclax] (partner 0.5 µM)
# Method in brief: as §1
cell line,measurement,setting,value
UMC-11,relative viability,RU-SKI 43 + Tozasertib; first compound 0.1 µM,0.204
same,relative viability,RU-SKI 43 + Tozasertib; first compound 0.3162 µM,0.197
same,relative viability,RU-SKI 43 + Tozasertib; first compound 1 µM,0.19
same,relative viability,RU-SKI 43 + Tozasertib; first compound 3.162 µM,0.175
same,relative viability,RU-SKI 43 + Tozasertib; first compound 10 µM,0.18
same,relative viability,RU-SKI 43 + Olaparib; first compound 0.1 µM,0.397
same,relative viability,RU-SKI 43 + Olaparib; first compound 0.3162 µM,0.418
same,relative viability,RU-SKI 43 + Olaparib; first compound 1 µM,0.399
same,relative viability,RU-SKI 43 + Olaparib; first compound 3.162 µM,0.383
same,relative viability,RU-SKI 43 + Olaparib; first compound 10 µM,0.273
same,relative viability,Irinotecan + Palbociclib; first compound 0.6325 µM,0.343
same,relative viability,Irinotecan + Palbociclib; first compound 2 µM,0.336
same,relative viability,Irinotecan + Palbociclib; first compound 6.325 µM,0.267
same,relative viability,Irinotecan + Palbociclib; first compound 20 µM,0.186
same,relative viability,MK-8033 + Navitoclax; first compound 0.02 µM,0.306
same,relative viability,MK-8033 + Navitoclax; first compound 0.06325 µM,0.265
same,relative viability,MK-8033 + Navitoclax; first compound 0.2 µM,0.287
same,relative viability,MK-8033 + Navitoclax; first compound 0.6325 µM,0.28
same,relative viability,MK-8033 + Navitoclax; first compound 2 µM,0.332
